In US8802597B2, “Herbicidal pyrimidines” (E I du Pont de Nemours and Company, priority 2003, dated 2014):

Experiments:
Format in all cases: in vivo
[1] = system: lambsquarters (Chenopodium album); test: Test C pre/postemergence; conditions: for Lambsquarters plant response rating: scale 0 to 100 (0 no effect, 100 complete control)
Method in brief: (§1)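 Percent control is a visual rating (0 none, 100 complete) taken against untreated plants after 12 to 14 days of greenhouse growth. Applications were made preemergence to seeded pots and postemergence to plants at the 1- to 4-leaf stage, in a non-phytotoxic surfactant-containing solvent.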

[2] = system: goosegrass (Eleusine indica); test: Test C pre/postemergence; conditions: for Goosegrass plant response rating: scale 0 to 100 (0 no effect, 100 complete control)
Method in brief: as §1

[3] = system: velvetleaf (Abutilon theophrasti); test: Test C pre/postemergence; conditions: for Velvetleaf plant response rating: scale 0 to 100 (0 no effect, 100 complete control)
Method in brief: as §1

[4] = system: giant foxtail (Setaria faberii); test: Test C pre/postemergence; conditions: for Foxtail, Giant plant response rating: scale 0 to 100 (0 no effect, 100 complete control)
Method in brief: as §1

[5] = system: chickweed (Stellaria media); test: Test C postemergence; conditions: for Chickweed plant response rating: scale 0 to 100 (0 no effect, 100 complete control); for Plant response rating, Chickweed: scale 0 to 100
Method in brief: as §1

[6] = Postemergence, 250 g ai/ha, scale 0 to 100
[7] = Postemergence, 500 g ai/ha, scale 0 to 100
[8] = Preemergence, 62 g ai/ha, scale 0 to 100, 0 no effect, 100 complete control
[9] = Preemergence, 125 g ai/ha, scale 0 to 100
[10] = Preemergence, 250 g ai/ha, scale 0 to 100
[11] = Preemergence, 500 g ai/ha, scale 0 to 100
[12] = Preemergence, 16 g ai/ha, scale 0 to 100, 0 no effect, 100 complete control
[13] = Preemergence, 31 g ai/ha, scale 0 to 100, 0 no effect, 100 complete control

| Compound | Lambsquarters plant response rating ([1]; Postemergence, 62 g ai/ha) | Lambsquarters plant response rating ([1]; Postemergence, 125 g ai/ha) | Plant response rating, Lambsquarters [1, 6] | Plant response rating, Lambsquarters [1, 7] | Plant response rating, Lambsquarters [1, 8] | Plant response rating, Lambsquarters [1, 9] | Plant response rating, Lambsquarters [1, 10] | Goosegrass plant response rating ([2]; Postemergence, 62 g ai/ha) | Goosegrass plant response rating ([2]; Postemergence, 125 g ai/ha) | Plant response rating, Goosegrass [2, 8] | Plant response rating, Goosegrass [2, 9] | Velvetleaf plant response rating ([3]; Postemergence, 62 g ai/ha) | Velvetleaf plant response rating ([3]; Postemergence, 125 g ai/ha) | Plant response rating, Velvetleaf [3, 8] | Plant response rating, Velvetleaf [3, 9] | Foxtail, Giant plant response rating ([4]; Postemergence, 62 g ai/ha) | Foxtail, Giant plant response rating ([4]; Postemergence, 125 g ai/ha) | Plant response rating, Foxtail, Giant [4, 8] | Plant response rating, Foxtail, Giant [4, 9] | Chickweed plant response rating ([5]; 62 g ai/ha) | other results |
| --- | --- | --- | --- | --- | --- | --- | --- | --- | --- | --- | --- | --- | --- | --- | --- | --- | --- | --- | --- | --- | --- |
| COC(=O)CNc1nc(C2CC2)nc(C(=O)OC)c1Br [Compound 10] | 60 | 80 | 90 | 100 | 0 | 50 | 65 | 0 | 0 | 0 | 0 | 65 | 70 | 0 | 0 | 0 | 0 | 0 | 0 | 0 | Plant response rating, Lambsquarters [1, 11]: 95; Plant response rating, Goosegrass [2, 6]: 0; Plant response rating, Goosegrass [2, 7]: 0; Plant response rating, Goosegrass [2, 10]: 0; Plant response rating, Goosegrass [2, 11]: 0; Plant response rating, Velvetleaf [3, 6]: 80; Plant response rating, Velvetleaf [3, 7]: 90; Plant response rating, Velvetleaf [3, 10]: 0; Plant response rating, Velvetleaf [3, 11]: 60; Plant response rating, Foxtail, Giant [4, 6]: 0; Plant response rating, Foxtail, Giant [4, 7]: 0; Plant response rating, Foxtail, Giant [4, 10]: 0; Plant response rating, Foxtail, Giant [4, 11]: 0; Plant response rating, Chickweed ([5]; 125 g ai/ha): 0; Plant response rating, Chickweed ([5]; 250 g ai/ha): 20; Plant response rating, Chickweed ([5]; 500 g ai/ha): 70 |
| COC(=O)c1nc(C2CC2C)nc(N)c1Br (stereo not drawn) [Compound 28] | 60 | 75 | 85 | 95 | 95 | 100 | 100 | 0 | 0 | 0 | 0 | 45 | 50 | 50 | 55 | 0 | 0 | 0 | 0 | 0 | Plant response rating, Lambsquarters [1, 11]: 100; Plant response rating, Goosegrass [2, 6]: 0; Plant response rating, Goosegrass [2, 7]: 15; Plant response rating, Goosegrass [2, 10]: 0; Plant response rating, Goosegrass [2, 11]: 20; Plant response rating, Velvetleaf [3, 6]: 70; Plant response rating, Velvetleaf [3, 7]: 75; Plant response rating, Velvetleaf [3, 10]: 95; Plant response rating, Velvetleaf [3, 11]: 100; Plant response rating, Foxtail, Giant [4, 6]: 0; Plant response rating, Foxtail, Giant [4, 7]: 15; Plant response rating, Foxtail, Giant [4, 10]: 0; Plant response rating, Foxtail, Giant [4, 11]: 0; Chickweed plant response rating ([5]; 125 g ai/ha): 0; Plant response rating, Chickweed ([5]; 250 g ai/ha): 15; Plant response rating, Chickweed ([5]; 500 g ai/ha): 20 |
| COC(=O)c1nc(C2CC2)nc(N=CN(C)C)c1Br [Compound 19] | 90 | 95 |  |  | 100 | 100 |  | 0 | 0 | 0 | 0 | 50 | 60 | 40 | 65 | 40 | 55 | 0 | 0 | 5 | Plant response rating (scale of 0 to 100), Lambsquarters ([1]; Postemergence, 16 g ai/ha): 70; Plant response rating (scale of 0 to 100), Lambsquarters ([1]; Postemergence, 31 g ai/ha): 90; Plant response rating, Lambsquarters [1, 12]: 75; Plant response rating, Lambsquarters [1, 13]: 100; Plant response rating (scale of 0 to 100), Goosegrass ([2]; Postemergence, 16 g ai/ha): 0; Plant response rating (scale of 0 to 100), Goosegrass ([2]; Postemergence, 31 g ai/ha): 0; Plant response rating, Goosegrass [2, 12]: 0; Plant response rating, Goosegrass [2, 13]: 0; Plant response rating (scale of 0 to 100), Velvetleaf ([3]; Postemergence, 16 g ai/ha): 30; Plant response rating (scale of 0 to 100), Velvetleaf ([3]; Postemergence, 31 g ai/ha): 40; Plant response rating, Velvetleaf [3, 12]: 25; Plant response rating, Velvetleaf [3, 13]: 35; Plant response rating (scale of 0 to 100), Foxtail, Giant ([4]; Postemergence, 16 g ai/ha): 0; Plant response rating (scale of 0 to 100), Foxtail, Giant ([4]; Postemergence, 31 g ai/ha): 5; Plant response rating, Foxtail, Giant [4, 12]: 0; Plant response rating, Foxtail, Giant [4, 13]: 0; Plant response rating (scale of 0 to 100), Chickweed ([5]; 16 g ai/ha): 0; Plant response rating (scale of 0 to 100), Chickweed ([5]; 31 g ai/ha): 0; Plant response rating, Chickweed ([5]; 125 g ai/ha): 5 |
